In ChEMBL document CHEMBL1140238, “Synthesis of selective SRPK-1 inhibitors: novel tricyclic quinoxaline derivatives” (Bioorg Med Chem Lett, 2005):

What was measured:
[1] = target: Mitogen-activated protein kinase 8 (Homo sapiens) (UniProt P45983); assay: In vitro percent inhibition of c-Jun N-terminal kinase 1-alpha 1 at 10 uM concentration of compound dissolved in 100% DMSO using 5''-[gamma-33P]-triphosphate
[2] = In vitro percent inhibition of Cyclin-dependent kinase 2-cyclin A at 10 uM concentration of compound dissolved in 100% DMSO using 5''-[gamma-33P]-triphosphate
[3] = target: Ribosomal protein S6 kinase (P70S6K) (Homo sapiens) (UniProt Q9UBS0+P23443); assay: In vitro percent inhibition of Ribosomal protein S6 kinase at 10 uM concentration of compound dissolved in 100% DMSO using 5''-[gamma-33P]-triphosphate; assay type: protein-complex assay
[4] = target: Glycogen synthase kinase-3 beta (Homo sapiens) (UniProt P49841); assay: In vitro percent inhibition of Glycogen synthase kinase 3 beta at 10 uM concentration of compound dissolved in 100% DMSO using 5''-[gamma-33P]-triphosphate
[5] = target: RAF proto-oncogene serine/threonine-protein kinase (Homo sapiens) (UniProt P04049); assay: In vitro percent inhibition of RAF proto-oncogene serine/threonine-protein kinase at 10 uM concentration of compound dissolved in 100% DMSO using 5''-[gamma-33P]-triphosphate
RAF proto-oncogene serine/threonine-protein kinase (Homo sapiens), sequence (P04049 whole entry): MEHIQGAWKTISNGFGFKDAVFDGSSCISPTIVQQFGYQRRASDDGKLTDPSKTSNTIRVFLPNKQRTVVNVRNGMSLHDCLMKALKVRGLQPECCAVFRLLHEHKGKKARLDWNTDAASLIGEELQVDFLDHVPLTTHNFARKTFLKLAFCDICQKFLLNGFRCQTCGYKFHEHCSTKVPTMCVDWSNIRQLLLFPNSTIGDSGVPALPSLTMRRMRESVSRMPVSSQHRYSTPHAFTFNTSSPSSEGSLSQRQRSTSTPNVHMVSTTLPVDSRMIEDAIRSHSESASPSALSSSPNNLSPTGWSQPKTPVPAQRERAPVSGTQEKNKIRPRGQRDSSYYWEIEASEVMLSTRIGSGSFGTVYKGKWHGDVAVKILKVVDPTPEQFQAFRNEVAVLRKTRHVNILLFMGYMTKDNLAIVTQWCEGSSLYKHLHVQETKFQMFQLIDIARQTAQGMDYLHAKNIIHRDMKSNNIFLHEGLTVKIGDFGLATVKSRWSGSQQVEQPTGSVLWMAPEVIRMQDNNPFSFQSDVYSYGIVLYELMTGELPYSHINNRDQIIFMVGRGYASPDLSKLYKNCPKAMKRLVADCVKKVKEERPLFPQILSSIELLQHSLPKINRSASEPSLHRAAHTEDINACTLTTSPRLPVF

[6] = target: Platelet-derived growth factor receptor beta (Homo sapiens) (UniProt P09619); assay: In vitro percent inhibition of Platelet-derived growth factor receptor, beta polypeptide at 10 uM concentration of compound dissolved in 100% DMSO using 5''-[gamma-33P]-triphosphate
[7] = target: Mast/stem cell growth factor receptor Kit (Homo sapiens) (UniProt P10721); assay: In vitro percent inhibition of v-kit Hardy-Zuckerman 4 feline sarcoma viral oncogene homolog at 10 uM concentration of compound dissolved in 100% DMSO using 5''-[gamma-33P]-triphosphate
Mast/stem cell growth factor receptor Kit (Homo sapiens), sequence (P10721 whole entry): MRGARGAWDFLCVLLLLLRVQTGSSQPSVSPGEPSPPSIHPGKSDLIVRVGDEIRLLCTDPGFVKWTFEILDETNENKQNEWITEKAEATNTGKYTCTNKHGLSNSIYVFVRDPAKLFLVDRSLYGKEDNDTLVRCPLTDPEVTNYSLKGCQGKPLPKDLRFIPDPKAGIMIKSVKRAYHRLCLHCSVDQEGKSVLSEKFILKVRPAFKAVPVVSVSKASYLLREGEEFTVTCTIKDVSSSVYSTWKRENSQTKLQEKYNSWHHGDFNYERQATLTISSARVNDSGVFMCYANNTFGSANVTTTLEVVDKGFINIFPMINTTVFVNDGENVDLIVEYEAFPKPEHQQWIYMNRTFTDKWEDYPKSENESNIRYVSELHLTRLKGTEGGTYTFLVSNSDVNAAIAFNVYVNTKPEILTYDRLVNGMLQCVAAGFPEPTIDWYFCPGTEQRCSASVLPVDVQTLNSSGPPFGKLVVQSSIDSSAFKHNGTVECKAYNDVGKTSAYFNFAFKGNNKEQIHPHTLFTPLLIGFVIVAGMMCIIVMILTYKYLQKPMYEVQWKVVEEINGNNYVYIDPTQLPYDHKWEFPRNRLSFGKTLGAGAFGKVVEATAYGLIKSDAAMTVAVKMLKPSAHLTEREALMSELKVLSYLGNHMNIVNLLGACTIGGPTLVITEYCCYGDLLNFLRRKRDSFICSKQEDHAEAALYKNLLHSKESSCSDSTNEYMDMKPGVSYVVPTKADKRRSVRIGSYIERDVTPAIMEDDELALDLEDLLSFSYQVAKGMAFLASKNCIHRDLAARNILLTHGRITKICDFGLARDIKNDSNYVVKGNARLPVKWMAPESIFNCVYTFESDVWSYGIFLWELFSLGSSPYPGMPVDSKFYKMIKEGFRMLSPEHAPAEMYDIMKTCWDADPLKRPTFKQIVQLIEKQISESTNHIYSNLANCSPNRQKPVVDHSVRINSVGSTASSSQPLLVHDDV

[8] = target: Hepatocyte growth factor receptor (Homo sapiens) (UniProt P08581); assay: In vitro percent inhibition of Met proto-oncogene tyrosine kinase at 10 uM concentration of compound dissolved in 100% DMSO using 5''-[gamma-33P]-triphosphate
Hepatocyte growth factor receptor (Homo sapiens), sequence (P08581 whole entry): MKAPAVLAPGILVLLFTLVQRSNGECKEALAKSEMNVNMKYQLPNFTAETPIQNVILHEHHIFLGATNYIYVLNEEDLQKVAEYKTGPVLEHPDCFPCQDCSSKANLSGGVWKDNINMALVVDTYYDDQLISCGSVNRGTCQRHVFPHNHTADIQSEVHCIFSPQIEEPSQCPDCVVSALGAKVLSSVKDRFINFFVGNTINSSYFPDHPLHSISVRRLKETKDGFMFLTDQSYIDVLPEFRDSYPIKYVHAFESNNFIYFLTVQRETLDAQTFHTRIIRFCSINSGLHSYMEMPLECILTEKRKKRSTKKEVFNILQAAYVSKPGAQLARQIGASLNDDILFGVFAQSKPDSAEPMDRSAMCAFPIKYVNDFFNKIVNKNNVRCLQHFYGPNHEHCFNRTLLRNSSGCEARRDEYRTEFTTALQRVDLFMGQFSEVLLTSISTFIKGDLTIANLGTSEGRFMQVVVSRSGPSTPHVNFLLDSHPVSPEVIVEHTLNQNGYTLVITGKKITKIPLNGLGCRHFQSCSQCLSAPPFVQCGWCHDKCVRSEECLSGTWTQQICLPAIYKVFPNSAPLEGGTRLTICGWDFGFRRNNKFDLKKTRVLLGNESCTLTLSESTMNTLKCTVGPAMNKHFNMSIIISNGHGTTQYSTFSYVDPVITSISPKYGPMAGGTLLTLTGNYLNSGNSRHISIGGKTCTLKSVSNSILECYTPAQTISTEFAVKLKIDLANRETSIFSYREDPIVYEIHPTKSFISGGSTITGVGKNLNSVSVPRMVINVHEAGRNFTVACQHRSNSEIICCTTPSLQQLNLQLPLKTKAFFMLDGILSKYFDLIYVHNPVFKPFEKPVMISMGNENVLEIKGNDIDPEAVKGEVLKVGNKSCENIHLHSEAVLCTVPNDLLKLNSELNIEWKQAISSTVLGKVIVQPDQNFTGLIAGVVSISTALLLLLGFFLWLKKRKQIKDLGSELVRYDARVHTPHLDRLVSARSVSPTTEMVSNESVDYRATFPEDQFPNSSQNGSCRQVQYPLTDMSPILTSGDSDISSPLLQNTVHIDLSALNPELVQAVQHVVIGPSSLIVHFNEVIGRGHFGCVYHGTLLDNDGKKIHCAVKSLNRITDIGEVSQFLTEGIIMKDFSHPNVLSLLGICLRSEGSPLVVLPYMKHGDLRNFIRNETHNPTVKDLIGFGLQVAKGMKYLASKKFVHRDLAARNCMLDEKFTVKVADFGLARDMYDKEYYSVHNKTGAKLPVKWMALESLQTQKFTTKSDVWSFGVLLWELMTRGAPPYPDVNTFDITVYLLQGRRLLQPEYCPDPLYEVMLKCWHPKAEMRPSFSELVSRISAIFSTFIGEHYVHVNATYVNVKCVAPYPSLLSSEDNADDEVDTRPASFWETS

[9] = target: Mitogen-activated protein kinase 3 (Homo sapiens) (UniProt P27361); assay: In vitro percent inhibition of Mitogen-activated protein kinase 3 at 10 uM concentration of compound dissolved in 100% DMSO using 5''-[gamma-33P]-triphosphate
Mitogen-activated protein kinase 3 (Homo sapiens), sequence (P27361 whole entry): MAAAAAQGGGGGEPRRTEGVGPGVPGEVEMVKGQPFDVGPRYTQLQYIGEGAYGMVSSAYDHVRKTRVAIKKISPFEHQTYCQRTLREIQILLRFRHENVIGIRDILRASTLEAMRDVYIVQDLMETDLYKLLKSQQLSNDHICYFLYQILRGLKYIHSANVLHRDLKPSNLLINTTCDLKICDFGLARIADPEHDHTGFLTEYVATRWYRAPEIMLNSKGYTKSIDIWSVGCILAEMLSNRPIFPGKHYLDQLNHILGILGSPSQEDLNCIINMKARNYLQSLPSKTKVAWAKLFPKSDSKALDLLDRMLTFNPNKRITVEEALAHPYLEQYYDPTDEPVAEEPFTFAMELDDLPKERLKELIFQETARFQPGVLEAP

[10] = target: RAC-alpha serine/threonine-protein kinase (Homo sapiens) (UniProt P31749); assay: In vitro percent inhibition of Protein kinase B, alpha at 10 uM concentration of compound dissolved in 100% DMSO using 5''-[gamma-33P]-triphosphate
[11] = target: Tyrosine-protein kinase Lck (Homo sapiens) (UniProt P06239); assay: In vitro percent inhibition of p56 Lck tyrosine kinase at 10 uM concentration of compound dissolved in 100% DMSO using 5''-[gamma-33P]-triphosphate
[12] = target: Rho-associated protein kinase 2 (Homo sapiens) (UniProt O75116); assay: In vitro percent inhibition of Protein kinase ROCK2 at 10 uM concentration of compound dissolved in 100% DMSO using 5''-[gamma-33P]-triphosphate
Rho-associated protein kinase 2 (Homo sapiens), sequence (O75116 whole entry, looked up, canonical isoform): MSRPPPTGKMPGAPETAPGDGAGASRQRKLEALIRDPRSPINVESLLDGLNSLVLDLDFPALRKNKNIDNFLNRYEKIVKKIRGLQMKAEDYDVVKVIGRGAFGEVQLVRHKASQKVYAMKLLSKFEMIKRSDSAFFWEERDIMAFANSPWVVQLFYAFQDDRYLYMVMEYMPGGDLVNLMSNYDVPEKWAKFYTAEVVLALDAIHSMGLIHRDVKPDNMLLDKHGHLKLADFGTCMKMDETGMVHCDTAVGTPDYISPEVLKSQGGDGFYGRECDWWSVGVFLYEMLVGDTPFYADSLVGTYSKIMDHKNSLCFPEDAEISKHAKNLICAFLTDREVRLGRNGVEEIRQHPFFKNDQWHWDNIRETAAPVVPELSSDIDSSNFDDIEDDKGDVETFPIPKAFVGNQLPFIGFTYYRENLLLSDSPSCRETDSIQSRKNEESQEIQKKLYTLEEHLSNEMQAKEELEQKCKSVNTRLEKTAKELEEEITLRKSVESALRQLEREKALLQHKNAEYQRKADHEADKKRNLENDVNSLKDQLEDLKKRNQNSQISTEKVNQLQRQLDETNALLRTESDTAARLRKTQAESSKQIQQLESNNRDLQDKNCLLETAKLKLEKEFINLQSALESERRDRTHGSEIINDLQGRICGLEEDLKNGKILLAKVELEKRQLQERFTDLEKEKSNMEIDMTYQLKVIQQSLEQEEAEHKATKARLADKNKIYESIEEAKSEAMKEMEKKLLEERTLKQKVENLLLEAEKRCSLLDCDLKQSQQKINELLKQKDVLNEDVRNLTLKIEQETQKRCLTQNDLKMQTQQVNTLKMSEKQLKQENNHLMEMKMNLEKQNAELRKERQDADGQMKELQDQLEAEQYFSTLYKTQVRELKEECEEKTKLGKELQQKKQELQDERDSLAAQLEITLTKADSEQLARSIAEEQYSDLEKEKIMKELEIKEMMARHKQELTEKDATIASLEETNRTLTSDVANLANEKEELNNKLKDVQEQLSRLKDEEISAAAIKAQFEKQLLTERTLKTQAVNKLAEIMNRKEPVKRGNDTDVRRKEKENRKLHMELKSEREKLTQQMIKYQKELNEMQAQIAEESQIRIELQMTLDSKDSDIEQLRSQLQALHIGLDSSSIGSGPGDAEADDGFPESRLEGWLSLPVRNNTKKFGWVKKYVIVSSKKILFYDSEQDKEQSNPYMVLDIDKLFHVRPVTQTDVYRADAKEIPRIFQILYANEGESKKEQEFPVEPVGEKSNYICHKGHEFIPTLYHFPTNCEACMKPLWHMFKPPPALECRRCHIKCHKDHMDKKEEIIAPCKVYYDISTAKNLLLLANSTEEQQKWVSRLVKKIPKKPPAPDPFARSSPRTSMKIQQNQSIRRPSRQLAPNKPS

[13] = target: Casein kinase I isoform alpha (Homo sapiens) (UniProt P48729); assay: In vitro percent inhibition of Casein kinase 1 alpha at 10 uM concentration of compound dissolved in 100% DMSO using 5''-[gamma-33P]-triphosphate
[14] = target: T1, Inhibitor of nuclear factor kappa-B kinase subunit beta (Homo sapiens) (UniProt O14920); assay: In vitro percent inhibition of I-kappa-B-kinase beta at 10 uM concentration of compound dissolved in 100% DMSO using 5''-[gamma-33P]-triphosphate
T1 sequence (whole entry): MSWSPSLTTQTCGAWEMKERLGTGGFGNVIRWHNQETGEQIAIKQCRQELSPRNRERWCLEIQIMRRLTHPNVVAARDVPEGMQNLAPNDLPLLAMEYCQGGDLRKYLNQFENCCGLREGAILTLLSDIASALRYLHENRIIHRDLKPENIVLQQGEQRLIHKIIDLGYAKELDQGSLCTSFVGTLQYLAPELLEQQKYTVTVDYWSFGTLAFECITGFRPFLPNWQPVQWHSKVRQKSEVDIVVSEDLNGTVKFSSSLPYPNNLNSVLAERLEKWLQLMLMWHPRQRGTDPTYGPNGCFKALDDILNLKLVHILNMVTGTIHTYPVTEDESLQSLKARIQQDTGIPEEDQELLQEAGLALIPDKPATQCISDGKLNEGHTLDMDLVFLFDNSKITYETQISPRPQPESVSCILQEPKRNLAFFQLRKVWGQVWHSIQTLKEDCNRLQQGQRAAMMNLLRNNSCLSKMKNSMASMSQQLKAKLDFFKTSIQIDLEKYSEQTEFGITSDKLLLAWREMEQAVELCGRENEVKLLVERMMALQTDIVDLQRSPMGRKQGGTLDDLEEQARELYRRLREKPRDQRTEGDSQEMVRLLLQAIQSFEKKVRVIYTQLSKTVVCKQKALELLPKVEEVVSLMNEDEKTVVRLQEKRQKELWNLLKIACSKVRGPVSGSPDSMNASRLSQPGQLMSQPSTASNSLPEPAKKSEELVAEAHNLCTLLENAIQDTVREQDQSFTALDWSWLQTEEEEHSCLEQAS

[15] = In vitro percent inhibition of Ribosomal S6 kinase 1 at 10 uM concentration of compound dissolved in 100% DMSO using 5''-[gamma-33P]-triphosphate
[16] = target: T2, Tyrosine-protein kinase transforming protein Abl (Abelson murine leukemia virus) (UniProt P00521); assay: In vitro percent inhibition of v-Abl tyrosine kinase at 10 uM concentration of compound dissolved in 100% DMSO using 5''-[gamma-33P]-triphosphate
T2 sequence (whole entry): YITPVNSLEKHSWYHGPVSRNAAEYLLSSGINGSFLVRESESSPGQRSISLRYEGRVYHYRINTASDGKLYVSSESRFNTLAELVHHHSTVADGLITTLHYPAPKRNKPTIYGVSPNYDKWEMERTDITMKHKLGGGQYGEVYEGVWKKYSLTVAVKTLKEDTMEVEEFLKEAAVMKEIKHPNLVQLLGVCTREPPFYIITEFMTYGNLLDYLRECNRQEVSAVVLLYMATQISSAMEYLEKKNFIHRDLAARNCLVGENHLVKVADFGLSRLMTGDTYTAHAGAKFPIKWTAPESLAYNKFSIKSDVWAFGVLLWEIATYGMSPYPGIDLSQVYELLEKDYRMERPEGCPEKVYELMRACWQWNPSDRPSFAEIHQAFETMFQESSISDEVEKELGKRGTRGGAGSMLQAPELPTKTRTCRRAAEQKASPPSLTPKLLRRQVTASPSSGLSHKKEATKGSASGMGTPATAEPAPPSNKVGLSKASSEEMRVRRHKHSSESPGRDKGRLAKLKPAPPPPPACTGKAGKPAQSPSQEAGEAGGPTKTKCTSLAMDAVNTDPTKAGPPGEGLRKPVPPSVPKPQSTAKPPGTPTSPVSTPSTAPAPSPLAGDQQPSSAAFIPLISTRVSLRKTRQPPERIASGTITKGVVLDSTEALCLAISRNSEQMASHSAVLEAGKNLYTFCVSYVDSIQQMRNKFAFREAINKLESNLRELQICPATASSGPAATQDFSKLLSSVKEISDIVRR

[17] = Partition coefficient (logP); assay type: physicochemical; conditions: octanol/water
[18] = target: Epidermal growth factor receptor (Homo sapiens) (UniProt P00533); conditions: 10 uM
SRPK1 (Homo sapiens) = assay: In vitro inhibition of SR protein kinase 1 by compound dissolved in 100% DMSO using 5''-[gamma-33P]-triphosphate; n.a. - not active
[19] = target: Insulin receptor (Homo sapiens) (UniProt P06213); assay: In vitro percent inhibition of Insulin receptor at 10 uM concentration of compound dissolved in 100% DMSO using 5''-[gamma-33P]-triphosphate
[20] = target: Proto-oncogene tyrosine-protein kinase Src (Homo sapiens) (UniProt P12931); assay: In vitro percent inhibition of c-Src tyrosine kinase at 10 uM concentration of compound dissolved in 100% DMSO using 5''-[gamma-33P]-triphosphate

Compound	inhibition [1]	inhibition [2]	inhibition [3]	inhibition [4]	inhibition [5]	inhibition [6]	inhibition [7]	inhibition [8]	inhibition [9]	inhibition [10]	inhibition [11]	inhibition [12]	inhibition [13]	inhibition [14]	inhibition [15]	inhibition [16]	logP [17]	inhibition [18]	inhibition [19]	inhibition [20]	further results
COC(=O)CCCc1ccc(-c2nc3cc4ccccc4cc3nc2-c2ccc(CCCC(=O)OC)s2)s1	9%	25%	-7%	24%	42%	47%	5%	12%	8%	-6%	2%	5%	30%	16%	38%	15%	5.5	8%			IC50 (SRPK1 (Homo sapiens)): Not Active
O=C(O)c1ccc2cc3nc(-c4cccs4)c(-c4cccs4)nc3cc2c1	20%		5%	4%	6%	68%	56%	49%	18%	-10%	47%	15%	10%	42%	3%	11%	5.4	40%	42%	83%	
O=C(O)CCc1ccc(-c2nc3cc4ccccc4cc3nc2-c2ccc(CCC(=O)O)s2)s1	-5%	-4%	29%	23%	18%	49%	52%	32%	11%	0%	-3%	18%	40%	54%	30%	3%	4.28	40%	-5%	70%	
c1csc(-c2nc3cc4c(cc3nc2-c2cccs2)OCCO4)c1	24%	1%			4%	61%	46%	42%	31%		53%	41%	8%	38%	19%	11%	5	34%	48%	84%	
Oc1cc2nc(-c3cccs3)c(-c3cccs3)nc2cc1O	-3%	7%	-8%	5%	3%		-7%	0%	25%	-7%	1%		9%	3%	6%	1%	4.2	25%	-4%	-3%	
c1csc(-c2nc3cc4ccccc4cc3nc2-c2cccs2)c1	6%	3%	8%	6%	16%	15%	8%	43%	11%	12%		19%	7%	6%	6%	4%	5.98	6%	55%	20%	
c1csc(-c2nc3cc4c(cc3nc2-c2cccs2)OCO4)c1	18%	-4%	6%	-1%	21%	54%	38%	34%	14%	-6%	41%	31%	9%	28%	1%	14%	4.8	35%	29%	71%	
O=C(O)Cc1ccc(-c2nc3cc4ccccc4cc3nc2-c2ccc(CC(=O)O)s2)s1	-3%	8%	17%	47%	39%	10%	15%	27%	52%	15%	-9%	5%	-2%	25%	23%	10%	3.3	52%	5%	14%	
